Laboratory results: US11420962B2, “Indene derivatives useful in treating pain and inflammation” (TARO PHARMACEUTICALS INC., priority 2018, dated 2022)

Legend:
male Sprague-Dawley rats = experiment: Rat chronic prostatitis/chronic pelvic pain (carrageenan); assay type: in vivo; settings: Day 3, 30 mg/kg dose, oral gavage QD
Experimental: Representative compounds of the invention (i.e., test compounds) were administered for 11 days by oral gavage in 0.9% saline (3, 10 or 30 mg/kg QD; 5 mL/kg dose volume) to male Sprague-Dawley rats. Carrageenan-mediated chronic prostatitis/chronic pelvic pain (CP/CPPS) established in rats (10 per group) by administration of an intraprostatic injection of carrageenan (˜12.5 μL/lobe of a 30 mg/mL solution) into both ventral prostate lobes, on Day 0. Referred mechanical sensitivity was measured on Days 0, 1, 3 and 7, 2 hours after test compound, or vehicle (saline) administration, by applying 6 von Frey filaments with increasing forces of 0.16-2 g to the scrotal skin area, 3 times each for 1-2 seconds, with a 5-second interval between applications. Responses were scored (zero-no response; one-reaction of the animal, two-jump, and three-licking the site) and expressed as the nociceptive threshold for each day of assessment. Ibuprofen was used as a reference standard.
According to the above assay, Compound Ia-1 restored nociceptive threshold to 65% of baseline on Day 3 at the 30 mg/kg dose as compared to the reference standard, ibuprofen (300 mg/kg), which restored the threshold to 120% of the baseline.

Human DRG = experiment: Human dorsal root ganglion (DRG) excitability response; assay type: cell-based; settings: Table 6; Biological Example 3, human DRG; read-out: Scoring (IC50)
Experimental: Human DRGs are transferred into a dissection vessel containing a cold (4° C.), fresh proprietary dissection solution. DRGs are maintained completely submerged in dissection solution followed by dissection by an appropriate method.
Cells are plated into a 96 well plate. Calcium dye (Fluo 8-AM) is loaded in each well for a period of 20 to 25 min, maintaining temperature at ambient. The baseline excitability profile (ability of firing action potentials) of the cells is assessed at both low and high threshold stimulations using optical EFS. Following baseline profiling, cells are subjected to test compounds.
Representative compounds of the invention (i.e., test compounds) are added to cells and the cells are stimulated (using EFS) to induce action potentials at regular intervals, according to the parameters outlined in Table 5. Four concentrations of each compound are utilized and directly injected into separate wells to allow for determination of a dose response (IC50). At the end of the protocol, the nociceptor positive control compound (capsaicin) is perfused into the cells at 200 nM and signal recorded. […]
Recordings are performed in stream mode at 100 Hz for the EFS portion of the above protocol and in time lapse model at 0.2 Hz for the final step utilizing capsaicin. For each concentration tested, the number of cells blocked vs baseline will be counted at different thresholds. […]

Mice (male, C57Bl/6) = experiment: Pulmonary LPS challenge assay in mice; assay type: in vivo; settings: 30 mg/kg, oral gavage once daily for three days; BALF 24 h post LPS
Experimental: Mice (male, C57Bl/6) were acclimatized for a period of about 7 days before initiation of the experiment and randomized on the day prior to treatment. Mice received vehicle or representative test compounds of the invention (i.e., test compounds) once daily for three days by oral gavage on Day −2, Day −1 and on Day 0 (the last dose being 1 h prior to LPS administration). One group of mice received the reference standard, dexamethasone, once, IP on Day 0 at 1 h prior to LPS administration. Pulmonary inflammation was induced in all animals except the sham control animals by intratracheal instillation of 20 μg LPS per animal in 50 μl saline. Sham control animals received 50 μl saline alone.
Twenty-four hours post LPS administration, animals were euthanized and the trachea was cannulated. Cold Hanks Balanced Salt Solution (HBSS) (SIGMA; Catalogue number: H1387), pH 7.2, was infused into the lungs and bronchoalveolar lavage fluid (BALF) was collected.
Total leukocyte counts were performed from the collected BALF using a mini flow-cytometer and differential counts were performed in cytospin smears stained with Leishman's staining manually. ELISA kits were used for quantification of cytokines in the BALF (TNFα, IL-1β, IL-6 and KC). Reagents, samples and standards were prepared as per kit manual. Total protein analysis in BALF samples were performed using the Biorad protein assay reagent. […]

For `C=C1CC[C@H]2[C@H](CN)[C@@H]([C@@]3(C)Cc4cn[nH]c4C[C@@H]3CO)CC[C@]12C` [Ia-1, ((5R,6S)-5-((3aS,4R,5S,7aS)-4-(aminomethyl)-7a-methyl-1-methyleneoctahydro-1H-inden-5-yl)-5-methyl-4,5,6,7-tetrahydro-1H-indazol-6-yl)methanol], the “nociceptive threshold restored, % of baseline” value (male Sprague-Dawley rats) was 65%, the IC50 (Human DRG) was < 2000 nM and the “% protection from neutrophilia” value (Mice (male, C57Bl/6)) was 44%.
